Our source for the TGI values is PubChem BioAssay (NCI).

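Each compound was tested at five concentrations against cells in 96-well plates for 48 hours. TGI denotes the concentration required for complete inhibition of growth.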 Where only a bound is given, the exact number is not on record here.

Some test systems named below: HCT-116 colon; SK-MEL-2 melanoma; KM12 colon; HCC-2998 colon; ACHN renal; 786-0 renal; A549 NSCLC; SNB-75 CNS; MOLT-4 leukemia; NCI-H23 lung; NCI-H226 lung; SF-268 CNS; SK-MEL-5 melanoma; HCT-15 colon; OVCAR-4 ovarian; A498 renal; UO-31 renal.
Holding throughout (test): growth of human tumour cells (NCI), 48 h

For the molecule `CN(NC(=O)c1ccco1)C1=NCCN1`, the TGI in the experiment with HCT-116 colon, in the experiment on SK-MEL-2 melanoma, in the experiment with KM12 colon, in the experiment with HCC-2998 colon, in the experiment with ACHN renal and in the experiment on 786-0 renal was > 100 µM throughout. For the same molecule, the TGI in the experiment on A549 NSCLC, in the experiment with SNB-75 CNS, with MOLT-4 leukemia, in the experiment with NCI-H23 lung, with NCI-H226 lung and with SF-268 CNS was > 100 µM throughout. The TGI with SK-MEL-5 melanoma, with HCT-15 colon, with OVCAR-4 ovarian, with A498 renal and in the experiment with UO-31 renal was > 100 µM throughout.
As to `COc1cc(C2c3cc4c(cc3OC(NC3CCCCC3)C2C)OCO4)cc(OC)c1OC` (centres undefined), the TGI with HCT-116 colon was found to be 15.5 µM; in the experiment with SK-MEL-2 melanoma it was 47.8 µM; in the experiment with KM12 colon it was 7.89 µM; with HCC-2998 colon, 4.22 µM; in the experiment on ACHN renal, 40.2 µM; in the experiment with 786-0 renal it was 20.1 µM. Moreover, the TGI in the experiment on A549 NSCLC was > 85.3 µM; with SNB-75 CNS it was 0.623 µM; in the experiment on MOLT-4 leukemia, > 39 µM; in the experiment on NCI-H23 lung it was 11 µM; with NCI-H226 lung it was 15.8 µM; in the experiment with SF-268 CNS it was 28.6 µM. Further, the TGI in the experiment on SK-MEL-5 melanoma was 1.93 µM; in the experiment on HCT-15 colon, > 45.4 µM; with OVCAR-4 ovarian it was > 28.3 µM; in the experiment on A498 renal, 25 µM; in the experiment on UO-31 renal, 32.2 µM.
As for `COc1ccc(NC(=O)CC(=O)N2N=C(N3CCCCC3)CC2c2ccccc2)cc1` (centres undefined), the TGI with HCT-116 colon, in the experiment with SK-MEL-2 melanoma, with KM12 colon, with HCC-2998 colon, in the experiment with ACHN renal and in the experiment with 786-0 renal was > 100 µM throughout. Further, the TGI in the experiment with A549 NSCLC, in the experiment on SNB-75 CNS, in the experiment with MOLT-4 leukemia, in the experiment with NCI-H23 lung, in the experiment with NCI-H226 lung and in the experiment with SF-268 CNS was > 100 µM throughout. Also, the TGI with SK-MEL-5 melanoma, in the experiment on HCT-15 colon, in the experiment with OVCAR-4 ovarian, with A498 renal and in the experiment on UO-31 renal was > 100 µM each time.
For the molecule `Cc1ccc(CC(=O)Nc2ccc(NC(=O)/C=C/NC(=O)/C=C/c3ccc(-c4ccccc4)cc3)cc2C(=O)c2ccccc2)cc1`, the TGI with HCT-116 colon was 2.96 µM; in the experiment on SK-MEL-2 melanoma, 5.79 µM; in the experiment with KM12 colon, 14.6 µM; with HCC-2998 colon, 1.61 µM; in the experiment on ACHN renal, 10.9 µM; in the experiment on 786-0 renal it was 3.34 µM. Also, the TGI in the experiment on A549 NSCLC is 4.32 µM; in the experiment with SNB-75 CNS, 6.59 µM; in the experiment on MOLT-4 leukemia, 9.16 µM; in the experiment on NCI-H23 lung it was 4.2 µM; in the experiment on NCI-H226 lung it was 6.15 µM; with SF-268 CNS, 9.46 µM. Moreover, the TGI in the experiment with SK-MEL-5 melanoma came to 5.14 µM; in the experiment on HCT-15 colon, 9.53 µM; in the experiment with OVCAR-4 ovarian it was 3.41 µM; in the experiment with A498 renal, 5.31 µM; in the experiment on UO-31 renal, 13.7 µM.
Regarding `Cc1ccc(/C(O)=C/c2nc3ccccc3oc2=O)cc1`, the TGI with HCT-116 colon, in the experiment with SK-MEL-2 melanoma, with KM12 colon, with HCC-2998 colon, in the experiment on ACHN renal and with 786-0 renal was > 100 µM throughout. The TGI in the experiment with A549 NSCLC, with SNB-75 CNS, in the experiment on MOLT-4 leukemia, in the experiment with NCI-H23 lung, with NCI-H226 lung and in the experiment with SF-268 CNS was > 100 µM in each case. Further, the TGI in the experiment on SK-MEL-5 melanoma is 46.2 µM; in the experiment on HCT-15 colon, > 100 µM; in the experiment with OVCAR-4 ovarian, > 100 µM; in the experiment on A498 renal, > 100 µM; in the experiment on UO-31 renal it was > 100 µM.
Turning to `O=C(Nc1cc(C(=O)Nc2cccc(S(=O)(=O)O)c2)cc(C(=O)Nc2cccc(S(=O)(=O)O)c2)c1)c1cccc(C(=O)Nc2cc(C(=O)Nc3cccc(S(=O)(=O)O)c3)cc(C(=O)Nc3cccc(S(=O)(=O)O)c3)c2)c1`, the TGI in the experiment with HCT-116 colon, in the experiment with SK-MEL-2 melanoma, in the experiment with KM12 colon, with HCC-2998 colon, in the experiment with ACHN renal and in the experiment on 786-0 renal was > 100 µM each time. Besides, the TGI in the experiment with A549 NSCLC, in the experiment on SNB-75 CNS, in the experiment on MOLT-4 leukemia, with NCI-H23 lung, in the experiment with NCI-H226 lung and with SF-268 CNS was > 100 µM each time. In addition, the TGI with SK-MEL-5 melanoma, in the experiment with HCT-15 colon, in the experiment with OVCAR-4 ovarian, in the experiment with A498 renal and with UO-31 renal was > 100 µM in each case.
With `CCCCON1C[C@@H](O)C(O)[C@@H](O)C1` (some centres undefined), the TGI in the experiment on HCT-116 colon, in the experiment with SK-MEL-2 melanoma, in the experiment on KM12 colon, in the experiment on HCC-2998 colon, in the experiment on ACHN renal and with 786-0 renal was > 100 µM each time. For the same molecule, the TGI in the experiment on A549 NSCLC, in the experiment with SNB-75 CNS, in the experiment on MOLT-4 leukemia, in the experiment on NCI-H23 lung, in the experiment with NCI-H226 lung and in the experiment with SF-268 CNS was > 100 µM in each case. In addition, the TGI in the experiment on SK-MEL-5 melanoma, with HCT-15 colon, in the experiment on OVCAR-4 ovarian, in the experiment on A498 renal and with UO-31 renal was > 100 µM throughout.
`COc1cc2cc(C(=O)N3CC(CCl)c4c3cc([N+](=O)[O-])c3ccccc43)[nH]c2c(OC)c1OC` (centres undefined): the TGI with HCT-116 colon, in the experiment on SK-MEL-2 melanoma, in the experiment on KM12 colon, in the experiment on HCC-2998 colon, with ACHN renal and in the experiment with 786-0 renal was > 100 µM in each case. Also, the TGI in the experiment on A549 NSCLC, in the experiment on SNB-75 CNS, in the experiment with MOLT-4 leukemia, with NCI-H23 lung, with NCI-H226 lung and with SF-268 CNS was > 100 µM in each case. In addition, the TGI in the experiment on SK-MEL-5 melanoma was > 100 µM; in the experiment with HCT-15 colon, > 100 µM; in the experiment with OVCAR-4 ovarian it was > 100 µM; in the experiment with A498 renal it was 97.6 µM; in the experiment on UO-31 renal, > 100 µM.
For `CCN(CC)CC(=O)Nc1c(C(N)=O)nnn1Cc1cc(Cl)c(C(=O)c2ccc(Cl)cc2)c(Cl)c1`, the TGI is 32.1 µM in the experiment with HCT-116 colon; 28.4 µM in the experiment on SK-MEL-2 melanoma; 35.8 µM with KM12 colon; 32.1 µM in the experiment with HCC-2998 colon; > 100 µM in the experiment with ACHN renal; 31.4 µM in the experiment with 786-0 renal. Further, the TGI in the experiment on A549 NSCLC was 79.6 µM; in the experiment with SNB-75 CNS it was 59 µM; with MOLT-4 leukemia, 56 µM; in the experiment with NCI-H23 lung, 37.4 µM; with NCI-H226 lung, 30.4 µM; in the experiment with SF-268 CNS, 45.5 µM. Besides, the TGI in the experiment on SK-MEL-5 melanoma was 30.4 µM; in the experiment with HCT-15 colon, 34.4 µM; with OVCAR-4 ovarian it was > 100 µM; in the experiment with A498 renal it was > 100 µM; in the experiment on UO-31 renal, 31.2 µM.
With `C=CCCCC1CCCNC1=O` (centres undefined), the TGI with HCT-116 colon, with SK-MEL-2 melanoma, with KM12 colon, with HCC-2998 colon, with ACHN renal and with 786-0 renal was > 100 µM in each case. Besides, the TGI in the experiment with A549 NSCLC, in the experiment with SNB-75 CNS, with MOLT-4 leukemia, in the experiment with NCI-H23 lung, with NCI-H226 lung and in the experiment on SF-268 CNS was > 100 µM each time. The TGI with SK-MEL-5 melanoma, in the experiment with HCT-15 colon, in the experiment with OVCAR-4 ovarian, in the experiment on A498 renal and in the experiment with UO-31 renal was > 100 µM throughout.
`C=CCc1cc(-c2cc(CC=C)c(O)c(CN(CCCl)CCCl)c2)cc(CN(CCCl)CCCl)c1O`: the TGI stood at 25.3 µM in the experiment with HCT-116 colon; 40.6 µM with SK-MEL-2 melanoma; 36.7 µM with KM12 colon; 29.2 µM with HCC-2998 colon; 21.9 µM with ACHN renal; 37.9 µM with 786-0 renal. In addition, the TGI with A549 NSCLC is 45.3 µM; with SNB-75 CNS it was 58.6 µM; with MOLT-4 leukemia it was > 100 µM; in the experiment on NCI-H23 lung, 22.1 µM; in the experiment with NCI-H226 lung, 33.5 µM; in the experiment with SF-268 CNS, 47.8 µM. The TGI came to 32.7 µM with SK-MEL-5 melanoma; 38 µM with HCT-15 colon; 52.6 µM with OVCAR-4 ovarian; 40.5 µM with A498 renal; 32.1 µM in the experiment on UO-31 renal.
Regarding `O=C(/C=C(\O)c1ccc(Cl)cc1)C(=O)N=Nc1c(O)[nH]c2ccc(Br)cc12`, the TGI is > 100 µM in the experiment on HCT-116 colon; 41.2 µM in the experiment with SK-MEL-2 melanoma; > 100 µM with KM12 colon; > 100 µM with HCC-2998 colon; > 100 µM with ACHN renal; > 100 µM with 786-0 renal. The TGI in the experiment with A549 NSCLC is > 100 µM; with SNB-75 CNS, > 100 µM; in the experiment on MOLT-4 leukemia, 4.85 µM; with NCI-H23 lung, > 100 µM; in the experiment on NCI-H226 lung, > 100 µM; with SF-268 CNS, > 100 µM. The TGI in the experiment on SK-MEL-5 melanoma is > 100 µM; with HCT-15 colon, > 100 µM; with OVCAR-4 ovarian it was > 100 µM; in the experiment on A498 renal, 74.3 µM; in the experiment on UO-31 renal, > 100 µM.
